Test [1] has as its target T1, human HSP60/10 (Homo sapiens, UniProt P10809).
T1 construct: octa-Histidine tag (TEV-cleavable) (N, cleaved yes); made in house; host or cells: HSP60 in E. coli Rosetta 2 (DE3); HSP10 in Rosetta 2 (DE3) pLysS
Nature of the test: HSP60/10-mediated dMDH refolding assay. It is filed as biochemical. As to the method: Reagent preparation: For these assays, four primary reagent stocks were prepared: 1) GroEUES-dMDH or HSP60/10-dMDH binary complex stock; 2) ATP initiation stock; 3) EDTA quench stock; 4) MDH enzymatic assay stock. Denatured MDH (dMDH) was prepared by 2-fold dilution of MDH (5 mg/ml, soluble pig heart MDH from Roche, product #10127248001) with denaturant buffer (7 M guanidine-HCl, 200 mM Tris, pH 7.4, and 50 mM DTT). MDH was completely denatured by incubating at room temperature for 45 min. The binary complex solutions were prepared by slowly adding the dMDH stock to a stirring stock with GroEL (or HSP60) in folding buffer (50 mM Tris-HCl, pH 7.4, 50 mM KCl, 10 mM MgCl2, and 1 mM DTT), followed by addition of GroES (or HSP10). The binary complex stocks were prepared immediately prior to dispensing into the assay plates and had final protein concentrations of 83.3 nM GroEL (Mr 800 kDa) or HSP60 (Mr 400 kDa), 100 nM GroES or HSP10 (Mr 70 kDa), and 20 nM dMDH in folding buffer. For the ATP initiation stock, ATP solid was diluted into folding buffer to a final concentration of 2.5 mM. Quench solution contained 600 mM EDTA (pH 8.0). The MDH enzymatic assay stock consisted of 20 mM sodium mesoxalate and 2.4 mM NADH in reaction buffer (50 mM Tris-HCl, pH 7.4, 50 mM KCl, and 1 mM DTT).
Assay Protocol: First, 30 μL aliquots of the GroEL/ES-dMDH or HSP60/10-dMDH binary complex stocks were dispensed into clear, 384-well polystyrene plates. […] The chaperonin-mediated refolding cycles were initiated by addition of 20 μL of ATP stock (reagent concentrations during refolding cycle: 50 nM GroEL or HSP60, 60 nM GroES or HSP10, 12 nM dMDH, 1 mM ATP, and compounds of 100 μM to 46 nM, 3-fold dilution series). The refolding reactions were incubated at 37° C. […] Next, the assay was quenched by addition of 10 μL of the EDTA to final concentration of 100 mM. […] A340 nm measurements were recorded at 0.5 minutes (start point) and at successive time points until the amount of NADH consumed reached ˜90% (end point, generally between 20-35 minutes). The differences between the start and end point A340 values were used to calculate the % inhibition of the GroEL/ES or HSP60/10 machinery by the compounds. […] Results presented represent the averages of IC50 values obtained from at least quadriplicate (duplicate of duplicate) replicates.

The test system of test [2] is Acinetobacter baumannii (ATCC 19606). Nature of the test: Bacterial proliferation assay, A. baumannii. In kind it is cell-based. The source says:
Bacterial Strains: Enterococcus faecium—(Orla-Jensen) Schleifer and Kilpper-Balz strain NCTC 7171 (ATCC 19434); Drug sensitive Staphylococcus aureus—Rosenbranch strain Seattle 1945 (ATCC 25923); Methicillin resistant S. aureus (MRSA)—Rosenbach strain HPV107 (ATCC BAA-44); Klebsiella Pneumonia—(Schroeter) Trevisan strain NCTC 9633 (ATCC 13883); Acinetobacter baumannii—Bouvet and Grimont strain 2208 (ATCC 19606); Pseudomonas aeruginosa—(Schroeter) Migula strain NCTC 10332 (ATCC 10145); Enterobacter cloacae—E. cloacae, subsp. cloacae (Jordan) Hormaeche and Edwards strain CDC 442-68 (ATCC 13047).
Growth Media: All bacteria were grown in Brain Heart Infusion (BHI) broth/agar (Becton, Dickinson and Company). All liquid cultures were grown in BHI media supplemented with 25 mg/L Ca^2+ and 12.5 mg/L Mg^2+ to mimic free physiological concentrations of these cations. A 10 mg/mL Ca^2+ stock solution was prepared by dissolving 3.68 g of CaCl2.2H2O in 100 mL of deionized water, and a 10 mg/mL Mg^2+ stock solution was prepared by dissolving 8.36 g of MgCl2.6H2O in 100 mL deionized water. Both stock solutions were filter-sterilized using 0.2 μm pore size cellulose-acetate filters. 2.5 mL of the sterile 10 mg/mL Ca^2+ stock and 1.25 mL of the sterile 10 mg/mL Mg^2+ stock solutions were added per 1 L of autoclaved BHI medium to obtain 25 mg/L Ca^2+ and 12.5 mg/L Mg^2+ ions, respectively.
General Assay Protocol: Stock bacterial cultures were streaked onto BHI agar plates and grown overnight at 37° C. Fresh aliquots of broth were inoculated with single bacterial colonies and the cultures were grown overnight at 37° C. with shaking (240 rpm) in cation adjusted BHI media. The following morning, the overnight cultures were sub-cultured (1:5 dilution) into fresh aliquots of cation adjusted BHI media and grown at 37° C. for 1-2 hours with shaking. After 2 h, cultures were diluted into fresh media to achieve final OD600 readings of 0.017. Aliquots of these diluted cultures (30 μL) were added to clear, flat-bottom, 384-well polystyrene plates that were stamped with 0.5 μL of test compounds in 20 μL media. […] Plates were sealed with “Breathe Easy” oxygen permeable membranes (Diversified Biotech) and left to incubate at 37° C. without shaking (stagnant assay). OD600 nm readings were taken at either 6-8 h (S. aureus, MRSA, K. pneumonia, E. cloacae, and P. aeruginosa) or 24 h (E. faecium and A. baumannii). A second set of baseline control plates were prepared analogously, but without any bacteria added, to correct for possible compound absorbance and/or precipitation. Plates were then read at 600 nm using a Molecular Devices SpectraMax Plus384 microplate reader. […] Results presented represent the averages of EC50 values obtained from at quadriplicate (duplicate of duplicate) replicates.

Where [3] appears, read: human HSP60/10-dMDH refolding assay, read-out: HSP60/10-dMDH Refolding IC50.
[4] abbreviates: log(IC50) ± standard deviation, human HSP60/10-dMDH refolding assay, read-out: HSP60/10-dMDH Refolding Assay log(IC50) (converted).
[5] abbreviates: ATCC19606, OD600 at 24 h, read-out: Bacterial Proliferation EC50 A. baumannii.
Where [6] appears, read: ATCC19606, log of EC50 (μM scale), with standard deviation, read-out: log(EC50) Bacterial Proliferation Assay A. baumannii (converted).
Setting [7] is: ATCC19606, 24 h, read-out: Bacterial Proliferation EC50 A. baumannii.
Where [8] appears, read: ATCC19606, read-out: log(EC50) Bacterial Proliferation Assay A. baumannii (converted).
The mark [9] stands for this setting: log(IC50) ± standard deviation, human HSP60/10-dMDH refolding assay.

Where two headings read alike, the source gives them in different places. Bounds are passed on as bounds.

T1 sequence (P10809 27-573): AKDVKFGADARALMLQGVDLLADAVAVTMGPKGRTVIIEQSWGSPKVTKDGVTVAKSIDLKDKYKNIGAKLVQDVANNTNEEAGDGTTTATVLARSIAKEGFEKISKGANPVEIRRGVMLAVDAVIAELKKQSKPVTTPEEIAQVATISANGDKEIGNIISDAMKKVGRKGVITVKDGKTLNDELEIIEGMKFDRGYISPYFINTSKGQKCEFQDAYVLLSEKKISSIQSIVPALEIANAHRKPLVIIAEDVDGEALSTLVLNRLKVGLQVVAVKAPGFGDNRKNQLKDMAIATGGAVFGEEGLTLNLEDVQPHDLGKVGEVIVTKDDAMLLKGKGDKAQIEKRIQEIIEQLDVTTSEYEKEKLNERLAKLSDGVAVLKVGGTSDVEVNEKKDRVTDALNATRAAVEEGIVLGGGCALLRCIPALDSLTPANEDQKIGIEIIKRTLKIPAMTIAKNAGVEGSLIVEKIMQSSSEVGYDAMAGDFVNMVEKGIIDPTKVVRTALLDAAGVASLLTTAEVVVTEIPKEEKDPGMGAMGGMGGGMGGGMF

Regarding `COc1c(Br)cccc1C(=O)Nc1ccccc1` [Compound 42, 3-Bromo-2-methoxy-N-phenylbenzamide], the IC50 in test [1] (setting [3]) and in test [1] (setting [4]) was above 100 µM throughout. The EC50 in test [2] (setting [5]) and in test [2] (setting [6]) was above 100 µM each time.

For `Cc1cc(C(C#N)c2ccc(Cl)cc2)c(Cl)cc1NC(=O)c1cc(I)cc(I)c1O` (centres unmarked) [Closantel, closantel, reference compound], the EC50 in test [2] (setting [7]) and in test [2] (setting [8]) was above 100 µM throughout.

For the compound `COc1c(Br)cc(Br)cc1C(=O)Nc1ccc(Sc2nc3ccccc3s2)c(Cl)c1` [Compound 29, N-(4-(Benzo[d]thiazol-2-ylthio)-3-chlorophenyl)-3,5-dibromo-2-methoxybenzamide], the IC50 in test [1] (setting [3]) and in test [1] (setting [4]) was above 100 µM in each case. Besides, the EC50 in test [2] (setting [5]) and in test [2] (setting [6]) was above 100 µM throughout.

Take `O=C(Nc1ccc(Sc2nc3ccccc3s2)cc1)c1cc(Br)cc(Br)c1` [Compound 20, N-(4-(Benzo[d]thiazol-2-ylthio)phenyl)-3,5-dibromobenzamide]: the IC50 in test [1] (setting [3]) and in test [1] (setting [4]) was above 100 µM in each case. The EC50 in test [2] (setting [5]) and in test [2] (setting [6]) was above 100 µM throughout.

As to `O=C(Nc1ccc(Oc2ccc(Cl)cc2)c(Cl)c1)c1cc(I)cc(I)c1O` [Rafoxanide, rafoxanide, reference compound], the EC50 in test [2] (setting [7]) is 31 µM; in test [2] (setting [8]), 30.9 µM.

`O=C(Nc1ccccc1)c1ccccc1O` [Compound 16, 2-Hydroxy-N-phenylbenzamide] showed an IC50 in test [1] above 100 µM. Moreover, the “HSP60/10-dMDH Refolding Assay log(IC50)” value in test [1] (setting [9]) is reported as above 2. Besides, the EC50 in test [2] (setting [7]) and in test [2] (setting [8]) was above 100 µM each time.

Turning to `COc1ccccc1C(=O)Nc1ccc(Sc2nc3ccccc3s2)cc1` [Compound 36, N-(4-(Benzo[d]thiazol-2-ylthio)phenyl)-2-methoxybenzamide], the IC50 in test [1] (setting [3]) and in test [1] (setting [4]) was above 100 µM throughout. Further, the EC50 in test [2] (setting [5]) and in test [2] (setting [6]) was above 100 µM throughout.

On to `O=C(Nc1ccc(Sc2nc3ccccc3s2)cc1)c1ccccc1O` [Compound 8, N-(4-(Benzo[d]thiazol-2-ylthio)phenyl)-2-hydroxybenzamide], for which the IC50 in test [1] (setting [3]) and in test [1] (setting [4]) was above 100 µM throughout. For the same compound, the EC50 in test [2] (setting [5]) and in test [2] (setting [6]) was above 100 µM throughout.

Turning to `O=C(Nc1cccc(Cl)c1)c1cc(Br)ccc1O` [Compound 11, 5-Bromo-N-(3-chlorophenyl)-2-hydroxybenzamide], the IC50 in test [1] (setting [3]) and in test [1] (setting [4]) was above 100 µM in each case. Besides, the EC50 in test [2] (setting [7]) and in test [2] (setting [8]) was above 100 µM throughout.

With `O=C(Nc1ccc(Sc2nc3ccccc3s2)c(Cl)c1)c1cc(Br)cc(Br)c1O` [Compound 1, N-(4-(Benzo[d]thiazol-2-ylthio)-3-chlorophenyl)-3,5-dibromo-2-hydroxybenzamide], the IC50 in test [1] (setting [3]) is 4.2 µM; in test [1] (setting [4]), 4.17 µM. The EC50 is 66 µM in test [2] (setting [7]) and 66.1 µM in test [2] (setting [8]).

For the compound `COc1ccc(Br)cc1C(=O)Nc1cccc(Cl)c1` [Compound 39, 5-Bromo-N-(3-chlorophenyl)-2-methoxybenzamide], the IC50 in test [1] (setting [3]) and in test [1] (setting [4]) was above 100 µM in each case. The EC50 in test [2] (setting [5]) and in test [2] (setting [6]) was above 100 µM in each case.

On to `O=C(Nc1cccc(Cl)c1)c1cccc(Br)c1O` [Compound 10, 3-Bromo-N-(3-chlorophenyl)-2-hydroxybenzamide], for which the IC50 in test [1] (setting [3]) and in test [1] (setting [4]) was above 100 µM each time. Also, the EC50 in test [2] (setting [5]) and in test [2] (setting [6]) was above 100 µM each time.

Consider `COc1c(Br)cccc1C(=O)Nc1cccc(Cl)c1` [Compound 38], for which the IC50 in test [1] (setting [3]) and in test [1] (setting [4]) was above 100 µM in each case. For the same compound, the EC50 in test [2] (setting [5]) and in test [2] (setting [6]) was above 100 µM throughout.

With `CN[C@H](CC(C)C)C(=O)N[C@H]1C(=O)N[C@@H](CC(N)=O)C(=O)N[C@H]2C(=O)N[C@H]3C(=O)N[C@H](C(=O)N[C@H](C(=O)O)c4cc(O)cc(O)c4-c4cc3ccc4O)[C@H](O)c3ccc(c(Cl)c3)Oc3cc2cc(c3O[C@@H]2O[C@H](CO)[C@@H](O)[C@H](O)[C@H]2O[C@H]2C[C@](C)(N)[C@H](O)[C@H](C)O2)Oc2ccc(cc2Cl)[C@H]1O` [Vancomycin, vancomycin, reference compound], the IC50 in test [1] is above 100 µM. In addition, the “HSP60/10-dMDH Refolding Assay log(IC50)” value in test [1] (setting [9]) is recorded as above 2. The EC50 in test [2] (setting [7]) and in test [2] (setting [8]) was above 100 µM throughout.

Consider `O=C(Nc1ccccc1)c1cccc(Br)c1O` [Compound 14, 3-Bromo-2-hydroxy-N-phenylbenzamide], for which the IC50 in test [1] (setting [3]) and in test [1] (setting [4]) was above 100 µM in each case. Moreover, the EC50 in test [2] (setting [5]) and in test [2] (setting [6]) was above 100 µM in each case.

As to `O=C(Nc1ccccc1)c1cc(Br)ccc1O` [Compound 15, 5-Bromo-2-hydroxy-N-phenylbenzamide], the IC50 in test [1] (setting [3]) and in test [1] (setting [4]) was above 100 µM each time. Besides, the EC50 in test [2] (setting [5]) and in test [2] (setting [6]) was above 100 µM throughout.

As to `COc1ccccc1C(=O)Nc1cccc(Cl)c1` [Compound 40, N-(3-Chlorophenyl)-2-methoxybenzamide], the IC50 in test [1] (setting [3]) and in test [1] (setting [4]) was above 100 µM in each case. In addition, the EC50 in test [2] (setting [5]) and in test [2] (setting [6]) was above 100 µM throughout.

Take `O=C(Nc1ccc(Sc2nc3ccccc3s2)cc1)c1cc(Br)cc(Br)c1O` [Compound 5, N-(4-(Benzo[d]thiazol-2-ylthio)phenyl)-3,5-dibromo-2-hydroxybenzamide]: the results for the IC50 in test [1] (setting [3]) and in test [1] (setting [4]) were 4.7 µM and 4.68 µM, respectively. Besides, the EC50 in test [2] (setting [7]) and in test [2] (setting [8]) was above 100 µM each time.

Source of the values: patent US20210395210A1, “INHIBITION OF BACTERIAL CHAPERONIN SYSTEMS” (THE TRUSTEES OF INDIANA UNIVERSITY, priority 2018, published 2021).
